± gives the expanded uncertainty stated by the source.
Test: mn = molality of the nth substance listed, in mol/kg
Conditions: 101 kPa, Liquid, Vibrating tube method

Which mass density (293.15 K, m1 = 0.0076) does the source give for O=C([O-])Cc1ccccc1Nc1c(Cl)cccc1Cl.[Na+] [sodium diclofenac] + O here?
The mass density was 998.331 ± 0.084 kg/m3.

What about the mass density (293.15 K, m1 = 0.01) of the same compound?
The mass density was 998.385 ± 0.084 kg/m3.

What about the mass density (293.15 K, m1 = 0.0125) of the same compound?
The mass density was 998.445 ± 0.085 kg/m3.

And the mass density (293.15 K, m1 = 0.0152)?
The mass density was 998.525 ± 0.087 kg/m3.

And the mass density (293.15 K, m1 = 0.0175)?
The mass density was 998.605 ± 0.088 kg/m3.

What about the mass density (293.15 K, m1 = 0.02) of the same compound?
The mass density was 998.695 ± 0.091 kg/m3.

And the mass density (293.15 K, m1 = 0.025)?
The mass density was 998.911 ± 0.092 kg/m3.

And the mass density (298.15 K, m1 = 0.0076)?
The mass density was 997.159 ± 0.099 kg/m3.

And the mass density (298.15 K, m1 = 0.01)?
Its mass density is 997.215 ± 0.084 kg/m3.

And the mass density (298.15 K, m1 = 0.0125)?
The mass density was 997.261 ± 0.084 kg/m3.

And the mass density (298.15 K, m1 = 0.0152)?
Its mass density is 997.325 ± 0.086 kg/m3.

And the mass density (298.15 K, m1 = 0.0175)?
Its mass density is 997.405 ± 0.09 kg/m3.

And the mass density (298.15 K, m1 = 0.02)?
The mass density was 997.505 ± 0.092 kg/m3.

What about the mass density (298.15 K, m1 = 0.025) of the same compound?
The mass density was 997.691 ± 0.084 kg/m3.

And the mass density (303.15 K, m1 = 0.0076)?
The mass density was 995.745 ± 0.095 kg/m3.

And the mass density (303.15 K, m1 = 0.01)?
The mass density was 995.795 ± 0.085 kg/m3.

What about the mass density (303.15 K, m1 = 0.0125) of the same compound?
Its mass density is 995.851 ± 0.085 kg/m3.

And the mass density (303.15 K, m1 = 0.0152)?
The mass density was 995.905 ± 0.085 kg/m3.

And the mass density (303.15 K, m1 = 0.0175)?
Its mass density is 995.973 ± 0.089 kg/m3.

And the mass density (303.15 K, m1 = 0.02)?
The mass density was 996.075 ± 0.09 kg/m3.

What about the mass density (303.15 K, m1 = 0.025) of the same compound?
Its mass density is 996.239 ± 0.084 kg/m3.

What about the mass density (308.15 K, m1 = 0.0076) of the same compound?
Its mass density is 994.125 ± 0.09 kg/m3.

And the mass density (308.15 K, m1 = 0.01)?
The mass density was 994.175 ± 0.085 kg/m3.

And the mass density (308.15 K, m1 = 0.0125)?
The mass density was 994.221 ± 0.085 kg/m3.

And the mass density (308.15 K, m1 = 0.0152)?
The mass density was 994.294 ± 0.086 kg/m3.

What about the mass density (308.15 K, m1 = 0.0175) of the same compound?
The mass density was 994.351 ± 0.088 kg/m3.

What about the mass density (308.15 K, m1 = 0.02) of the same compound?
The mass density was 994.436 ± 0.09 kg/m3.

What about the mass density (308.15 K, m1 = 0.025) of the same compound?
The mass density was 994.595 ± 0.086 kg/m3.

And the mass density (310.15 K, m1 = 0.0076)?
The mass density was 993.388 ± 0.084 kg/m3.

What about the mass density (310.15 K, m1 = 0.01) of the same compound?
Its mass density is 993.424 ± 0.084 kg/m3.

What about the mass density (310.15 K, m1 = 0.0125) of the same compound?
The mass density was 993.475 ± 0.086 kg/m3.

And the mass density (310.15 K, m1 = 0.0152)?
Its mass density is 993.541 ± 0.086 kg/m3.

And the mass density (310.15 K, m1 = 0.0175)?
The mass density was 993.591 ± 0.086 kg/m3.

What about the mass density (310.15 K, m1 = 0.02) of the same compound?
Its mass density is 993.661 ± 0.09 kg/m3.

What about the mass density (310.15 K, m1 = 0.025) of the same compound?
The mass density was 993.851 ± 0.091 kg/m3.

What about the mass density (313.15 K, m1 = 0.0075) of the same compound?
Its mass density is 992.285 ± 0.084 kg/m3.

And the mass density (313.15 K, m1 = 0.01)?
The mass density was 992.325 ± 0.085 kg/m3.

What about the mass density (313.15 K, m1 = 0.0125) of the same compound?
The mass density was 992.375 ± 0.085 kg/m3.

And the mass density (313.15 K, m1 = 0.0152)?
Its mass density is 992.428 ± 0.086 kg/m3.

What about the mass density (313.15 K, m1 = 0.0175) of the same compound?
The mass density was 992.481 ± 0.086 kg/m3.

And the mass density (313.15 K, m1 = 0.02)?
Its mass density is 992.545 ± 0.089 kg/m3.

What about the mass density (313.15 K, m1 = 0.025) of the same compound?
The mass density was 992.725 ± 0.091 kg/m3.

From the NIST ThermoML archive (doi:10.1016/j.jct.2008.09.016)
